Activity calls are given as the source filed them. No cut-off for these calls is given here.
Key:
[1] = test system: A549; assay: cells; settings: Homo sapiens, A549, 72 h
Description: Antiproliferative activity against human A549 cells harboring EGFR after 72 hrs by MTT assay

[2] = target: ALK tyrosine kinase receptor (Homo sapiens, UniProt Q9UM73, G1202R)
[3] = test system: KARPAS-299; assay: Antiproliferative activity against human KARPAS299 cells harboring NPM-ALK after 72 hrs by MTT assay; assay type: functional, cell-based; settings: KARPAS-299, 72 h
[4] = test system: HCC78; assay: Downregulation of ROS1 protein expression in human HCC78 cells at 100 nM after 6 hrs by Western blot method; assay type: functional, cell-based
[5] = target: T1, ALK tyrosine kinase receptor (Homo sapiens, UniProt Q9UM73)
Description: Inhibition of recombinant human N-terminal GST-tagged ALK cytoplasmic domain (1058 to 1620 residues) expressed in baculovirus expression system using peptide substrate after 1 hr by mobility shift assay

[6] = target: T1, ALK tyrosine kinase receptor; assay: Inhibition of ALK phosphorylation in human KARPAS299 cells after 6 hrs by Western blot method; assay type: cell-based
Target sequence in this assay (Q9UM73 19-1620 limits assumed): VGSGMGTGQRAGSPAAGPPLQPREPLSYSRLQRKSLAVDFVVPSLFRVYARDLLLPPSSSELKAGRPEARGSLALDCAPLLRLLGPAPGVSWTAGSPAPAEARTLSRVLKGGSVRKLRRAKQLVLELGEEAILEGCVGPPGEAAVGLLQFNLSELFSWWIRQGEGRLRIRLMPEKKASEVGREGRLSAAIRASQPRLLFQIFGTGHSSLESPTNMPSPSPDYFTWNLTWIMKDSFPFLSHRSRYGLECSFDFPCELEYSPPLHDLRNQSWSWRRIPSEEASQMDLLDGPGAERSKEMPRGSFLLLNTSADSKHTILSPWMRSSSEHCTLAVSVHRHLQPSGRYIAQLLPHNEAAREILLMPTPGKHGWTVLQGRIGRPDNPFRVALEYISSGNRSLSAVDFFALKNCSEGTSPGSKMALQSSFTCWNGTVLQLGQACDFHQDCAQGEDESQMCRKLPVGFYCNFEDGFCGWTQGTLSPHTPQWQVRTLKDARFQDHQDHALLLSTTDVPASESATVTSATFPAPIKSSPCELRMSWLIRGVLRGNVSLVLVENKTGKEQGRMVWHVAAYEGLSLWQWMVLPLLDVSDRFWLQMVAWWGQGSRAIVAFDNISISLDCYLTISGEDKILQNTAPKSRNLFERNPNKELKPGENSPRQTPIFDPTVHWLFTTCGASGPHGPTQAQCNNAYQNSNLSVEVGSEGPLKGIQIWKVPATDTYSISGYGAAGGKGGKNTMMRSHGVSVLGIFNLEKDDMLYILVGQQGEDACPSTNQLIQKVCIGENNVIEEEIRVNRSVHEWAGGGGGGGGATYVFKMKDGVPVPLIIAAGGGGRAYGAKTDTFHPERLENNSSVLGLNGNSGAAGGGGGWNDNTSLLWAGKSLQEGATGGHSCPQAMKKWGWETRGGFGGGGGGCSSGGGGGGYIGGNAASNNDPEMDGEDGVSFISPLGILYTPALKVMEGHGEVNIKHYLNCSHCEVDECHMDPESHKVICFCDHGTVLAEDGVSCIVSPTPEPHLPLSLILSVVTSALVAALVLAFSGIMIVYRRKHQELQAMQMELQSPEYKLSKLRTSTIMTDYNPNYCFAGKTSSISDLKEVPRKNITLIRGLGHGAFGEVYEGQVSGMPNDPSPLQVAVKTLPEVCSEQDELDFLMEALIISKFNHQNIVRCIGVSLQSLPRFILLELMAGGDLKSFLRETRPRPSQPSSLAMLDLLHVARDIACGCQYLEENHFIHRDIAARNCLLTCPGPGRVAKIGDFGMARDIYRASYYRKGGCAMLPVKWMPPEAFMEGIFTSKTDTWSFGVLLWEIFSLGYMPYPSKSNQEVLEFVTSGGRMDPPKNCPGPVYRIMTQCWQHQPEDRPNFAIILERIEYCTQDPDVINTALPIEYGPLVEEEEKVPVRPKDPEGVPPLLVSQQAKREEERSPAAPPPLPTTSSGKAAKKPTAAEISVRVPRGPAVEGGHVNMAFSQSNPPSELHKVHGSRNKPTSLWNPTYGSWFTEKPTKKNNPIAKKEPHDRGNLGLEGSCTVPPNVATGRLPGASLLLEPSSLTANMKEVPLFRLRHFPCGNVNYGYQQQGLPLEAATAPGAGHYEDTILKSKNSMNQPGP

[7] = test system: ALK tyrosine kinase receptor (Homo sapiens), Q9UM73 [G1202R]
[8] = test system: KARPAS-299; assay: Downregulation of ALK protein expression in human KARPAS299 cells after 6 hrs by Western blot method; assay type: functional, cell-based
[9] = target: Hepatocyte growth factor receptor (Homo sapiens, UniProt P08581); assay: Inhibition of recombinant human N-terminal GST-tagged c-MET cytoplasmic domain (956 to 1390 residues) expressed in baculovirus expression system using peptide substrate after 1 hr by mobility shift assay
[10] = target: T2, Proto-oncogene tyrosine-protein kinase ROS (Homo sapiens, UniProt P08922); assay: Inhibition of ROS1 phosphorylation in human HCC78 cells at 100 nM after 6 hrs by Western blot method; assay type: cell-based
[11] = test system: NCI-H2228; assay: cells; settings: Homo sapiens, NCI-H2228, 72 h
Description: Antiproliferative activity against human NCI-H2228 cells harboring EML4-ALK after 72 hrs by MTT assay

[12] = target: ALK tyrosine kinase receptor (Homo sapiens, UniProt Q9UM73, T1151INS)
[13] = test system: ALK tyrosine kinase receptor (Homo sapiens), Q9UM73 [L1196M]
[14] = target: ALK tyrosine kinase receptor (Homo sapiens, UniProt Q9UM73, G1269A)
[15] = target: ALK tyrosine kinase receptor (Homo sapiens, UniProt Q9UM73, C1156Y)
[16] = target: T2, Proto-oncogene tyrosine-protein kinase ROS; assay: Inhibition of recombinant human N-terminal GST-tagged ROS1 cytoplasmic domain (1883 to 2347 residues) expressed in baculovirus expression system using peptide substrate after 1 hr by mobility shift assay
[17] = target: Epidermal growth factor receptor (Homo sapiens, UniProt P00533)
Description: Inhibition of recombinant human N-terminal GST-tagged EGFR cytoplasmic domain (669 to 1210 residues) expressed in baculovirus expression system using peptide substrate after 1 hr by mobility shift assay

[18] = target: ALK tyrosine kinase receptor (Homo sapiens, UniProt Q9UM73, L1196M)
[19] = test system: HCC78; assay: Induction of apoptosis in human HCC78 cells harboring SLC34A2-ROS1 after 24 hrs by acridine orange/ethidium bromide staining based fluorescence microscopic method; assay type: functional, cell-based
[20] = target: ALK tyrosine kinase receptor (Homo sapiens, UniProt Q9UM73, S1206Y)
[21] = test system: NCI-H460; assay: cells; settings: Homo sapiens, NCI-H460, 72 h
Description: Antiproliferative activity against human NCI-H460 cells after 72 hrs by MTT assay

[22] = test system: KARPAS-299; assay: Induction of apoptosis in human KARPAS299 cells harboring NPM-ALK after 24 hrs by acridine orange/ethidium bromide staining based fluorescence microscopic method; assay type: functional, cell-based
[23] = test system: HCC78; assay: Antiproliferative activity against human HCC78 cells harboring SLC34A2-ROS1 after 72 hrs by MTT assay; assay type: functional, cell-based; settings: HCC78, 72 h

T2 sequence (P08922 whole entry): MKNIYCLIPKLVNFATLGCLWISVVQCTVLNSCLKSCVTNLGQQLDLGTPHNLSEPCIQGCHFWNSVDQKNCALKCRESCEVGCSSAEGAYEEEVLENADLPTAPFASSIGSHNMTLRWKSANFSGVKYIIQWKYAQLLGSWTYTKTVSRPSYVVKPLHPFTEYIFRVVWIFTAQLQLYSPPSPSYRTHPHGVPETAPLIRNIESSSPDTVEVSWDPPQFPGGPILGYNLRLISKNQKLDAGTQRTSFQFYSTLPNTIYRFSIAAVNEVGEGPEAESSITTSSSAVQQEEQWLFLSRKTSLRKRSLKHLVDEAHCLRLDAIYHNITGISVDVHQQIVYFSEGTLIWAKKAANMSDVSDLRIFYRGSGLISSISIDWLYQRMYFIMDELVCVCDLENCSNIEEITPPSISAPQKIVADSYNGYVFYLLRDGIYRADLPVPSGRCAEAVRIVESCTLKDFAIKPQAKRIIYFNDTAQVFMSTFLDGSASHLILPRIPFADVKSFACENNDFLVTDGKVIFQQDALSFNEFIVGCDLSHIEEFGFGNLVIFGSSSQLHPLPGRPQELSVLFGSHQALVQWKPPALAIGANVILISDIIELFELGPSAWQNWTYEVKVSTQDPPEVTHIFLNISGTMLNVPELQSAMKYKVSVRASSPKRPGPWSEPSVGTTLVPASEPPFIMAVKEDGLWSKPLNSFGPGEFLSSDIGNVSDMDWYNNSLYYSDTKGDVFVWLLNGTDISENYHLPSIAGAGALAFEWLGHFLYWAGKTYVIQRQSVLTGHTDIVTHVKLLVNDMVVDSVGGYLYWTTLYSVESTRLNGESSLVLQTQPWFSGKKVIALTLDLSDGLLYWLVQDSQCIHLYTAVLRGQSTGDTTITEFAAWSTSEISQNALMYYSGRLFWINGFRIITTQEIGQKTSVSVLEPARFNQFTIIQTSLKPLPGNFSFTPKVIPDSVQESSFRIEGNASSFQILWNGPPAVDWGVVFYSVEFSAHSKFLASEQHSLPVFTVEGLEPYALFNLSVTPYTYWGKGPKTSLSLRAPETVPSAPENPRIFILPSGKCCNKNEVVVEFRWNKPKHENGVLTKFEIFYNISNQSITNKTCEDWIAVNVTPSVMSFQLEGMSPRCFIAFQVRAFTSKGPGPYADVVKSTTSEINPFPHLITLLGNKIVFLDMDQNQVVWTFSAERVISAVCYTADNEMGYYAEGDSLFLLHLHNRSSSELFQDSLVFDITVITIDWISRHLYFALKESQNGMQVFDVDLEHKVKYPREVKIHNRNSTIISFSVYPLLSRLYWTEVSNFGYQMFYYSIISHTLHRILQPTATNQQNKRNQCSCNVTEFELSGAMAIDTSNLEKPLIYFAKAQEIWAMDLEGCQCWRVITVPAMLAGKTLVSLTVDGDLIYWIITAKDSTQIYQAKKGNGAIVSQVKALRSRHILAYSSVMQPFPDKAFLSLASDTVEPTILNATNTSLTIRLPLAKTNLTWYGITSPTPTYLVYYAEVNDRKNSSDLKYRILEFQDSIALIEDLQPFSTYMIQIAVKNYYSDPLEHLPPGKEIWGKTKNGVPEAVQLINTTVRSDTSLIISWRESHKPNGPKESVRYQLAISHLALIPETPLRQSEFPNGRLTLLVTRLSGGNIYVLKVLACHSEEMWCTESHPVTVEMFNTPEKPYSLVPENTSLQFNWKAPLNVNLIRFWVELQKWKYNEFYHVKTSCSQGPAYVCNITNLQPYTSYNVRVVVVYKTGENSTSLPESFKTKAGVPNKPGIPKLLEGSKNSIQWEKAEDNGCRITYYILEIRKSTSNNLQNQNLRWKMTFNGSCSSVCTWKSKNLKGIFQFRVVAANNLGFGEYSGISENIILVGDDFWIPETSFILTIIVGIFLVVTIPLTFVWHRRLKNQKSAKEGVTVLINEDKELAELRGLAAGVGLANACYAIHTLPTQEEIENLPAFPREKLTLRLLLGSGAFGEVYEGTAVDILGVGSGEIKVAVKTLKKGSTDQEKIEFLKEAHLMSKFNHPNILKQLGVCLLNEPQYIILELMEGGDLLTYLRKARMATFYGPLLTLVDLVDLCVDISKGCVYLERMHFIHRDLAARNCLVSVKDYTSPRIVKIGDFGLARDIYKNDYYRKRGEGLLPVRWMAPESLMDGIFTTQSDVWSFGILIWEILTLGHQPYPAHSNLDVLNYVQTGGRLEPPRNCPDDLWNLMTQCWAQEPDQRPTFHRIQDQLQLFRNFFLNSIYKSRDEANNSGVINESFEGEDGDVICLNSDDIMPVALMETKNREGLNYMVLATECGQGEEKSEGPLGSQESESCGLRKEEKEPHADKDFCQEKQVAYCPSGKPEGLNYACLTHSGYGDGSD
Chain of ALK tyrosine kinase receptor (Homo sapiens, UniProt Q9UM73, G1269A) (Q9UM73 19-1620 G1269A limits assumed): as the sequence (Q9UM73 19-1620 limits assumed) above, with G1251A counted along it
Chain of ALK tyrosine kinase receptor (Homo sapiens, UniProt Q9UM73, G1202R) (Q9UM73 19-1620 G1202R limits assumed): as the sequence (Q9UM73 19-1620 limits assumed) above, with G1184R counted along it
Chain of ALK tyrosine kinase receptor (Homo sapiens, UniProt Q9UM73, C1156Y) (Q9UM73 19-1620 C1156Y limits assumed): as the sequence (Q9UM73 19-1620 limits assumed) above, with C1138Y counted along it
Chain of ALK tyrosine kinase receptor (Homo sapiens, UniProt Q9UM73, L1196M) (Q9UM73 19-1620 L1196M limits assumed): as the sequence (Q9UM73 19-1620 limits assumed) above, with L1178M counted along it
Chain of ALK tyrosine kinase receptor (Homo sapiens, UniProt Q9UM73, S1206Y) (Q9UM73 19-1620 S1206Y limits assumed): as the sequence (Q9UM73 19-1620 limits assumed) above, with S1188Y counted along it

COc1cc(-n2cc(CN3CCN(C)CC3)nn2)ccc1Nc1ncc(Cl)c(Nc2ccccc2S(=O)(=O)C(C)C)n1
IC50 [1]: > 1000 nM
IC50 [2]: 8.7 nM
IC50 [3]: 21 nM
Activity [4]: Active
IC50 [5]: 1.4 nM
inhibition [6]: Dose-dependent effect
Ratio IC50 [7]: 10
Activity [8]: Dose-dependent effect
IC50 [9]: > 1000 nM
inhibition [10]: Active
IC50 [11]: 95 nM
IC50 [12]: 2.3 nM
Ratio IC50 [13]: 11
IC50 [14]: 2.8 nM
IC50 [15]: 3 nM
IC50 [16]: 1.1 nM
IC50 [17]: > 1000 nM
IC50 [18]: 3.1 nM
Activity [19]: Dose-dependent effect
IC50 [20]: 4.6 nM
IC50 [21]: > 1000 nM
Activity [22]: Dose-dependent effect
IC50 [23]: 40 nM

— ChEMBL document CHEMBL4130574, “Discovery of novel 2,4-diarylaminopyrimidine analogues as ALK and ROS1 dual inhibitors to overcome crizotinib-resistant mutants including G1202R” (Eur J Med Chem, 2018)
